Measurements as given in US20220411380A1, “ACID ADDITION SALT OF RORy REGULATOR” (JIANGSU HENGRUI MEDICINE CO., LTD., priority 2019, published 2022).
pIC50: −log10 of the molar value.

How the values were obtained:
[1] = test system: IL-17A production in human peripheral blood mononuclear cells; test: Inhibition of cytokine IL-17A production in human peripheral blood mononuclear cells; format: cell-based; conditions: 72 h; human PBMC, cytostim, 3 days, IL-17A ELISA
Procedure: Test Example 2. Assay for Inhibiting Cytokine IL-17A Production in Human Peripheral Blood Mononuclear Cells
Frozen human peripheral blood mononuclear cells (PBMCs) were rapidly thawed in a pre-warmed lymphocyte medium and centrifuged at 1000 rpm for 10 min. The cell culture supernatant was discarded, and the cells were gently suspended in the TexMACS medium and counted. T cell activating reagent cytostim (10 μL/mL) was added to the cell suspension in certain proportions, and then the cells were seeded in a 96-well cell culture plate at a density of 1×10^5 PBMCs/well. Test compounds were diluted in gradient using TexMACS medium and added to the treatment wells in 2-3 replicates. Negative control wells containing cells only without cytostim were prepared to obtain background readings. The cell culture plate was incubated in a 5% carbon dioxide/37° C. incubator for 3 days. Cell culture supernatant was collected 3 days after treatment and centrifuged to remove the suspended matter. IL-17A in the supernatant was then quantified using an IL-17A enzyme-linked immunosorbent assay kit. […]
In the calculation equation, inhibition % is inhibition rate; OD(NC) is the reading of cells in negative control groups with no cytostim and no compound; OD(PC) is the reading of cells in positive control groups with cytostim but no compound; OD(compound) is the reading of cells with cytostim and compound.

RORγ LBD-GST tagged = biological target: T1, RORγ LBD-GST tagged (Homo sapiens, UniProt P51449); test: LanthaScreen TR-FRET RORγ-LBD and co-activation peptide biochemical assay; conditions: Fluorescein-D22 coactivator, read-out: RORγ coactivation assay (IC50)
T1 construct: RORγ LBD-GST tagged (Cat No. RORC-114H, Creative Biomart); purchased Creative Biomart RORC-114H
T1 sequence (P51449 269-508 limits assumed): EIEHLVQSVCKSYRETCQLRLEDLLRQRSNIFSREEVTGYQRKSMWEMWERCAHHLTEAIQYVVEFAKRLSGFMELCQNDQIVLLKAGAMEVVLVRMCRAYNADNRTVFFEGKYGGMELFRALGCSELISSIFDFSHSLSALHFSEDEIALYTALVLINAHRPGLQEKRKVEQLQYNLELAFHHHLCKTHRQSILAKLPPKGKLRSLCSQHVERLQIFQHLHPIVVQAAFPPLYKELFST
Procedure: Test Example 1. Biochemical Assay of LanthaScreen TR-FRET RORγ-LBD and Co-Activation Peptide
Complete TR-FRET Coregulator Buffer D was prepared by diluting 1 M DTT with TR-FRET Coregulator Buffer D to a final concentration of 5 mM DTT. The compounds were diluted in Complete TR-FRET Coregulator Buffer D. The solutions were serially 7-fold diluted from an initial concentration of 3 μM to the 7th concentration. 10 μL of the dilutions was added to each well of the 384-well plate. For negative and positive controls, 10 μL of Complete TR-FRET Coregulator Buffer D was added.
A RORγ LBD solution was prepared using Complete TR-FRET Coregulator Buffer D. The final concentration of the RORγ LBD solution in each reaction was 25 ng. Other than the negative wells receiving 5 μL of Complete TR-FRET Coregulator Buffer D, 5 μL of the RORγ LBD solution was added to the remaining wells of the 384-well assay plate.
Complete TR-FRET Coregulator Buffer D was used to prepare a solution containing 0.6 μM Fluorescein-D22 and 8 nM Tbanti-GST antibody, and 5 μL of the prepared solution was added to all wells of the 384-well assay plate. […]
The plate was measured on a Tecan Infinite M1000 plate reader at wavelengths of 520 nm and 495 nm. IC50 values were calculated using GraphPad Prism by plotting log compound concentration versus percentage inhibition.

[2] = Long-term/accelerated stability study of amorphous form of compound of formula II; format: physicochemical
[3] = as above; format: physicochemical; remark: listed apart in the source
Procedure: The amorphous form of the compound of formula II (Example 4) was subjected to a long-term (25° C., 60% RH)/accelerated (40° C., 75% RH) stability study with a period of 3 months.

[4] = Influencing factor study of amorphous form of compound of formula II; format: physicochemical
Procedure: A sample of the amorphous form of the compound of formula II (Example 4) was let stand open to examine the stability of the sample in conditions of heating (40° C. and 60° C.), illumination (4500 Lux) and high humidity (RH 75% and RH 90%) in a period of 30 days.

NC(=O)C[C@H](c1ccc(S(=O)(=O)CC2CC2)cc1)c1nc2cc(-c3ccccc3OC(F)F)c(Cl)cc2[nH]1 (single isomer, unassigned) [compound of formula II]
pIC50 [1]: 8.00
pIC50 (RORγ LBD-GST tagged): 7.89

NC(=O)C[C@H](c1ccc(S(=O)(=O)CC2CC2)cc1)c1nc2cc(-c3ccccc3OC(F)F)c(Cl)cc2[nH]1 [amorphous form of compound of formula II]
Chiral purity Initial ([2]; 5° C., Initial): 99.2
Purity Initial ([2]; 5° C., Initial): 99.87
Purity (%) Month 1 ([2]; 5° C., Month 1): 99.86%
Purity (%) Month 2 ([2]; 5° C.): 99.86%
Chiral purity (%) Month 3 ([2]; 5° C.): 99.1%
Purity (%) Month 3 ([2]; 5° C.): 99.85%
Chiral purity (%) Month 3 ([2]; 25° C., 60% RH): 99.2%
Purity (%) Month 3 ([2]; 25° C., 60% RH): 99.85%
Purity Initial ([2]; 40° C., 75% RH, Initial): 99.87
Purity (%) Month 2 ([2]; 40° C., 75% RH): 99.86%
Stability (conclusion of long-term/accelerated study) ([3]; 25° C., 60% RH and 40° C., 75% RH, 3 months): good chemical stability
Chiral purity Initial ([3]; 25° C., 60% RH, Initial): 99.2
Purity Initial ([3]; 25° C., 60% RH, Initial): 99.87
Purity (%) Month 1 ([3]; 25° C., 60% RH): 99.86%
Purity (%) Month 2 ([3]; 25° C., 60% RH, Month 2): 99.86%
Chiral purity Initial ([3]; 40° C., 75% RH, Initial): 99.2
Purity (%) Month 1 ([3]; 40° C., 75% RH): 99.87%
Chiral purity (%) Month 3 ([3]; 40° C., 75% RH, Month 3): 99.1%
Purity (%) Month 3 ([3]; 40° C., 75% RH, Month 3): 99.88%
Amorphous form Purity (%) ([4]; 40° C., 5 days): 99.93%
Color and appearance ([4]; 40° C., 5 days): White solid
Amorphous form Purity (%) ([4]; 40° C., 10 days): 99.90%
Chiral purity ([4]; 40° C., 10 days): 99.4
Color and appearance ([4]; 40° C., 10 days): White solid
Amorphous form Purity (%) ([4]; 40° C., 30 days): 99.92%
Chiral purity ([4]; 40° C., 30 days): 99.5
Color and appearance ([4]; 40° C., 30 days): White solid
Amorphous form Purity (%) ([4]; 60° C., 5 days): 99.95%
Color and appearance ([4]; 60° C., 5 days): White solid
Amorphous form Purity (%) ([4]; 60° C., 10 days): 99.95%
Chiral purity ([4]; 60° C., 10 days): 99.4
Color and appearance ([4]; 60° C., 10 days): White solid
Amorphous form Purity (%) ([4]; 60° C., 30 days): 99.95%
Chiral purity ([4]; 60° C., 30 days): 99.4
Color and appearance ([4]; 60° C., 30 days): White solid
Amorphous form Purity (%) ([4]; 4500 Lux, 5 days): 99.91%
Color and appearance ([4]; 4500 Lux, 5 days): White solid
Amorphous form Purity (%) ([4]; 4500 Lux, 10 days): 99.91%
Chiral purity ([4]; 4500 Lux, 10 days): 99.3
Color and appearance ([4]; 4500 Lux, 10 days): White solid
Amorphous form Purity (%) ([4]; 4500 Lux, 30 days): 99.93%
Chiral purity ([4]; 4500 Lux, 30 days): 99.3
Color and appearance ([4]; 4500 Lux, 30 days): White solid
Stability (conclusion of influencing factor study) ([4]; 30 days, illumination, 40° C., 60° C., high humidity of 75% and 90%): good chemical stability
Amorphous form Purity (%) ([4]; Initial, 0 days): 99.91%
Chiral purity ([4]; Initial, 0 days): 99.4
Color and appearance ([4]; Initial, 0 days): White solid
Amorphous form Purity (%) ([4]; RH 75%, 5 days): 99.92%
Color and appearance ([4]; RH 75%, 5 days): White solid
Weight gain (%) ([4]; RH 75%, 5 days): 10.42%
Amorphous form Purity (%) ([4]; RH 75%, 10 days): 99.90%
Chiral purity ([4]; RH 75%, 10 days): 99.3
Color and appearance ([4]; RH 75%, 10 days): White solid
Weight gain (%) ([4]; RH 75%, 10 days): 13.2%
Amorphous form Purity (%) ([4]; RH 75%, 30 days): 99.90%
Chiral purity ([4]; RH 75%, 30 days): 99.4
Color and appearance ([4]; RH 75%, 30 days): White solid
Weight gain (%) ([4]; RH 75%, 30 days): 23.24%
Amorphous form Purity (%) ([4]; RH 90%, 5 days): 99.91%
Color and appearance ([4]; RH 90%, 5 days): White solid
Weight gain (%) ([4]; RH 90%, 5 days): 21.67%
Amorphous form Purity (%) ([4]; RH 90%, 10 days): 99.92%
Chiral purity ([4]; RH 90%, 10 days): 99.4
Color and appearance ([4]; RH 90%, 10 days): White solid
Weight gain (%) ([4]; RH 90%, 10 days): 26.49%
Amorphous form Purity (%) ([4]; RH 90%, 30 days): 99.89%
Chiral purity ([4]; RH 90%, 30 days): 99.4
Color and appearance ([4]; RH 90%, 30 days): White solid
Weight gain (%) ([4]; RH 90%, 30 days): 37.24%
